Source: patent US20230227484A1, “PYRIMIDINE COMPOUND AS AXL INHIBITOR” (NANJING CHIA TAI TIANQING PHARMACEUTICAL CO., LTD., priority 2020, published 2023)

How the values were obtained:
AXL kinase = biological target: T1, AXL kinase (Homo sapiens, UniProt P30530); experiment: Inhibitory activity of compound against AXL kinase (HTRF KinEASE); type: biochemical; settings: AXL enzyme (Carna, 08-107), ATP 15 μM; "<" means below detection limit of the test
T1 construct: purchased Carna 08-107
T1 sequence (P30530 473-894 limits assumed): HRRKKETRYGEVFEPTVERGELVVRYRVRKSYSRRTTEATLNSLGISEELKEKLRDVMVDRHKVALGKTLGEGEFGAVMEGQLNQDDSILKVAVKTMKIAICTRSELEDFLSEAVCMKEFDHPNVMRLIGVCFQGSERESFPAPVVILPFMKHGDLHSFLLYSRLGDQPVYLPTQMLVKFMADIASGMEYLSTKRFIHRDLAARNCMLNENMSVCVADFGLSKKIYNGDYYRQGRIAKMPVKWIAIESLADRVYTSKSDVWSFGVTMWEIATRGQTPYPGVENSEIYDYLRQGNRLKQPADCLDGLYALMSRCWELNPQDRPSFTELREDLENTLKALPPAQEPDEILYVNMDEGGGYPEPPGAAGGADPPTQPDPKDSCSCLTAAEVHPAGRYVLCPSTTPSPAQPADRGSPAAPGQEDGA
Method: a) AXL enzyme (Carna, 08-107) configuration and addition: a 1×enzyme buffer (200 μL of Enzymatic buffer kinase 5×, 10 μL of 500 mM MgCl2, 10 μL of 100 mM DTT and 6.26 μL of 2500 nM SEB are added with […] of H2O, and prepared into 1 ml of 1× enzyme buffer) is used. AXL enzyme is diluted from 33.33 ng/uL to 0.027 ng/μL (1.67×, final conc.=0.016 ng/uL), a BioTek (MultiFlo FX) automatic liquid dispenser is used, and 6 μL of enzyme solution having a 1.67-fold final concentration is added respectively to compound wells and positive control wells; and 6 μL of 1×Enzymatic buffer is added to negative control wells.
b) Compound preparation and addition: the compounds and positive drugs prepared in the examples are diluted from 10 mM to 100 μM by DMSO, and titrated with a compound titrator (Tecan, D300e). The titrated solution is automatically sprayed by the titrator to each well to reach a required concentration, wherein the first concentration is 1 μM, and after ½ log dilution, a total of 8 concentrations are obtained. The resulting mixture is centrifuged at 2500 rpm for 30 s and incubated at room temperature for 15 min.
c) Preparation and addition of ATP and substrate: ATP (Sigma, A7699) is diluted with 1× enzyme buffer from 10 mM to 75 μM (5×), and the final concentration is 15 μM; the substrate TK Substrate 3-biotin (Cisbio, 61TK0BLC) is diluted with 1× enzyme buffer from 500 μM to 5 μM (5×), andthe final concentration is […]; ATP and the substrate are mixed in equal volume to obtain a mixed solution; the mixed solution is added to each well at 4 μL by using a BioTek automatic dispenser; centrifuged at 2500 rpm for 30 s, and reacted at 25° C. for 45 min.
d) Pirparation and addition of detection reagent: Streptavidin-XL665 (Cisbio, 610SAXLG) is diluted with HTRF KinEASE detection buffer (cisbio) from 16.67 μM to 250 nM (4×), and the final concentration is 62.5 nM; TK Antibody-Cryptate (Cisbio) is diluted with HTRF KinEASE detection buffer (cisbio) from 100× to 5×, and the final concentration is 1×; XL665 and Antibody are mixed in equal volume; the mixed solution is added to each well at 10 μL by using the BioTek automatic dispenser, centrifuged at 2500 rpm for 30 s, and reacted at 25° C. for 1 h. After the reaction is completed, the resulting product is detected by a multi-function plate reader HTR1p
GraphPad Prism 5 software log (inhibitor) vs. response-Variable slope is used to fit a dose-response curve to obtain the IC50 value of the compound to the inhibition of AXL kinase.
The calculation formula of the inhibition rate is as follows: […]

[1] = test system: MV-4-11 (human myeloid monocytic leukemia cell line); experiment: Proliferation inhibition activity of compounds to MV-4-11 cells (CellTiter-Glo); type: cell-based; settings: MV4-11 cells, 72 h dosing
Method: MV-4-11 (human myeloid monocytic leukemia cell line, culture medium: JIMDM+10% fetal bovine serum) is purchased from Cobioer Biosciences Co., Ltd and cultured in a 5% C02 incubator at 37° C. The cells in a logarithmic growth phase are plated in a 96-well plate at cell densities of 8000 cells/well, 6000 cells/well, 2000 cells/well, 2000 cells/well and 3000 cells/well, and a blank control group is set at the same time.
A compound to be tested and the positive drug are dissolved in dimethyl sulfoxide to prepare a 10 mM stock solution, which is then stored in −80° C. refrigerator for long-time storage. After the cells are plated for 24 h, the 10 mM compound stock solution is diluted with dimethyl sulfoxide to obtain a working solution having a 200-fold concentration (the highest concentration is 200 or 2000 μM, a 3-fold gradient, a total of 10 concentrations), and 3 μL of the working solution of each concentration is added to 197 μL of complete medium, and diluted into a working solution of 3-fold concentration. 50 μL of the working solution is then taken and added to a 100 μL cell culture medium (a final concentration of dimethyl sulfoxide is 0.5%, v/v), and two complex holes are set for each concentration. After 72 h of dosing treatment, 50 μl of CellTiter-Glo® (purchased from Promega) is added to each well. Fluorescence signals are measured on Envision (PerkinElmer) according to an operating procedure of the specification. GraphPad Prism 5 software log(inhibitor) vs. response-Variable slope is used to fit a dose-response curve, so as to obtain the IC50 value of the compound to the inhibition of cell-proliferation. The calculation formulation of the inhibition rate is as follows: […]
wherein: signal value of subject: a mean fluorescence signal of cell+medium+compound group; signal value of blank group: a mean fluorescence signal of medium group (containing 0.5% DMSO); signal value of negative control group: a mean fluorescence signal of cell+medium group (containing 0.5% DMSO).

Compound | IC50 (AXL kinase) [nM] | IC50 [1] [nM]
COCc1ccc(Nc2nc(Nc3ccc4c(c3)CCC(N3CC5CC3C5)CC4)ncc2Cl)c(P(C)(C)=O)c1 (single isomer, unassigned) [Example 116 Isomer 116-1, (2-((2-((7-(2-azabicyclo[2.1.1]hexan-2-yl)-6,7,8,9-tetrahydro-5H-benzo[7]annulen-2-yl)amino)-5-chloropyrimidin-4-yl)amino)-5-(methoxymethyl)phenyl)dimethyl phosphine oxide] | 4.94 | 10.1
O=C(c1ccccc1Nc1nc(Nc2ccc3c(c2)CC[C@@H](N2CCCC2)CC3)ncc1Cl)N1CCCC1 [Example 6, (S)-(2-((5-chloro-2-((7-(pyrrolidin-1-yl)-6,7,8,9-tetrahydro-5H-benzo[7]annulen-2-yl)amino)pyrimidin-4-yl)amino)phenyl)(pyrrolidin-1-yl)methanone] | < 0.11 | 3.38
NC(=O)c1cc(F)ccc1Nc1nc(Nc2ccc3c(c2)CC[C@@H](N2CCCC2)CC3)ncc1Cl [Example 16, (S)-2-((5-chloro-2-((7-(pyrrolidin-1-yl)-6,7,8,9-tetrahydro-5H-benzo[7]annulen-2-yl)amino)pyrimidin-4-yl)amino)-5-fluorobenzamide] | 0.12 | 0.97
CNC(=O)c1cnccc1Nc1nc(Nc2ccc3c(c2)CC[C@@H](N2CCCC2)CC3)ncc1Cl [Example 20, (S)-4-((5-chloro-2-((7-(pyrrolidin-1-yl)-6,7,8,9-tetrahydro-5H-benzo[7]annulen-2-yl)amino)pyrimidin-4-yl)amino)-N-methylnicotinamide] | 1.93 | 5.96
CP(C)(=O)c1cc(OC(F)F)ccc1Nc1nc(Nc2ccc3c(c2)CC[C@@H](N2CCCC2)CC3)ncc1Cl [Example 75, (S)-(2-((5-chloro-2-((7-(pyrrolidin-1-yl)-6,7,8,9-tetrahydro-5H-benzo[7]annulen-2-yl)amino)pyrimidin-4-yl)amino)-5-(difluoromethoxyl)phenyl)dimethyl phosphine oxide] | – | 2.93
CP(C)(=O)c1cc(OC(F)(F)F)ccc1Nc1nc(Nc2ccc3c(c2)CC[C@@H](N2CCCC2)CC3)ncc1Cl [Example 76, (S)-(2-((5-chloro-2-((7-(pyrrolidin-1-yl)-6,7,8,9-tetrahydro-5H-benzo[7]annulen-2-yl)amino)pyrimidin-4-yl)amino)-5-(trifluoromethoxyl)phenyl)dimethyl phosphine oxide] | – | 7.98
CNC(=O)c1ccc(Nc2nc(Nc3ccc4c(c3)CC[C@@H](N3CCCC3)CC4)ncc2Cl)c(P(C)(C)=O)c1 [Example 77, (S)-4-((5-chloro-2-((7-(pyrrolidin-1-yl)-6,7,8,9-tetrahydro-5H-benzo[7]annulen-2-yl)amino)pyrimidin-4-yl)amino)-3-(dimethylphosphoryl)-N-methylbenzamide] | – | 10.1
Cc1ccc(Nc2nc(Nc3ccc4c(c3)CC[C@@H](N3CCCC3)CC4)ncc2Cl)c(P(C)(C)=O)n1 [Example 81, (S)-(3-((5-chloro-2-((7-(pyrrolidin-1-yl)-6,7,8,9-tetrahydro-5H-benzo[7]annulen-2-yl)amino)pyrimidin-4-yl)amino)-6-methylpyridin-2-yl)dimethyl phosphine oxide] | – | 3.13
CP(C)(=O)c1cc(-n2cnnn2)ccc1Nc1nc(Nc2ccc3c(c2)CC[C@@H](N2CCCC2)CC3)ncc1Cl [Example 109, (S)-(2-((5-chloro-2-((7-(pyrrolidin-1-yl)-6,7,8,9-tetrahydro-5H-benzo[7]annulen-2-yl)amino)pyrimidin-4-yl)amino)-5-(1H-tetrazol-1-yl)phenyl)dimethyl phosphine oxide] | – | 8.56

Next, values leading:

IC50 (AXL kinase) [nM] | IC50 [1] [nM] | Compound
0.33 | 6.83 | CN(C)S(=O)(=O)c1ccccc1Nc1nc(Nc2ccc3c(c2)CC[C@@H](N2CCCC2)CC3)ncc1Cl [Example 1, (S)-2-((5-chloro-2-((7-(pyrrolidin-1-yl)-6,7,8,9-tetrahydro-5H-benzo[7]annulen-2-yl)amino)pyrimidin-4-yl)amino)-N,N-dimethyl benzenesulfonamide]
< 0.11 | 1.44 | CNC(=O)c1ccccc1Nc1nc(Nc2ccc3c(c2)CC[C@@H](N2CCCC2)CC3)ncc1Cl [Example 12, (S)-2-((5-chloro-2-((7-(pyrrolidin-1-yl)-6,7,8,9-tetrahydro-5H-benzo[7]annulen-2-yl)amino)pyrimidin-4-yl)amino)-N-methylbenzamide]
< 0.11 | 0.64 | NC(=O)c1ccccc1Nc1nc(Nc2ccc3c(c2)CC[C@@H](N2CCCC2)CC3)ncc1Cl [Example 13, (S)-2-((5-chloro-2-((7-(pyrrolidin-1-yl)-6,7,8,9-tetrahydro-5H-benzo[7]annulen-2-yl)amino)pyrimidin-4-yl)amino)benzamide]
2.41 | 9.15 | CC(C)(O)c1ccccc1Nc1nc(Nc2ccc3c(c2)CC[C@@H](N2CCCC2)CC3)ncc1Cl [Example 15, (S)-2-(2-((5-chloro-2-((7-(pyrrolidin-1-yl)-6,7,8,9-tetrahydro-5H-benzo[7]annulen-2-yl)amino)pyrimidin-4-yl)amino)phenyl)propan-2-ol]
0.11 | 6.76 | CC(C)S(=O)(=O)c1ccccc1Nc1nc(Nc2ccc3c(c2)CC[C@@H](N2CCCC2)CC3)ncc1Cl [Example 22, (S)-5-chloro-N^4-(2-(isopropylsulfo)phenyl)-N^2-(7-(pyrrolidin-1-yl)-6,7,8,9-tetrahydro-5H-benzo[7]annulen-2-yl)pyrimidine-2,4-diamine]
1.38 | 7.11 | CS(=O)(=O)c1ccccc1Nc1nc(Nc2ccc3c(c2)CC[C@@H](N2CCCC2)CC3)ncc1Cl [Example 23, (S)-5-chloro-N^4-(2-(methylsulfonyl)phenyl)-N^2-(7-(pyrrolidin-1-yl)-6,7,8,9-tetrahydro-5H-benzo[7]annulen-2-yl)pyrimidine-2,4-diamine]
< 0.11 | 6.89 | O=S(=O)(NC1CC1)c1ccccc1Nc1nc(Nc2ccc3c(c2)CC[C@@H](N2CCCC2)CC3)ncc1Cl [Example 24, (S)-2-((5-chloro-2-((7-(pyrrolidin-1-yl)-6,7,8,9-tetrahydro-5H-benzo[7]annulen-2-yl)amino)pyrimidin-4-yl)amino)-N-cyclopropyl benzenesulfonamide]
